Test results as given in patent US12133846B2, “Electrophilic androgen receptor (AR) antagonists for AR downregulation and ferroptosis induction in cancer cells” (priority 2019, dated 2024).
Like-named read-outs stand apart in the source and are kept apart here.

Experiments:
VCaP cells [1] = test: 3-79 plus BSO, MTT viability, VCaP cells; format: cell-based; conditions: for rescue of 3-79 plus BSO-induced viability loss, VCaP cells: 3-79 10 μM, BSO 100 μM, DFO 100 μM, α-Toc 100 μM, Fer-1 0.5 μM
Description: 3-79 and BSO effectively reduce the viability of VCaP cells. […] The viability loss of VCaP cells is rescued by antioxidants and iron chelators. […] Data (n=6-8) represent mean±SD obtained from MTT assay. Statistical significance was assessed by using two-tailed Student's t-tests. ***, P<0.001.

[2] = system: AR transcriptional activity in MDA-kb2 cells; test: cells; format: cell-based; conditions: DHT 1 nM; for suppression of DHT-stimulated luciferase activity: 1-5 μM; for AR inhibition at higher concentrations relative to comparators: 2.5 and 5 μM; for inhibition at 1 µM: MDA-kb2, 1 μM compound, read-out: inhibition of DHT-stimulated luciferase activity
Description: MDA-kb2-cell-based ARE luciferase assays were performed to assess the influence of 2-63 and related compounds on AR transcriptional activity. […] Upon androgen stimulation and addition of a luciferase substrate, […], and the intensity is proportional to the extent of AR activation. An agent that either antagonistically competes with DHT for AR binding or reduces the expression of AR diminishes luciferase activity/fluorescence signal in this experimental system. […] 10b (an alcohol) and 11 b (an azide) are synthetic precursors of the ITC hybrid 12b.
Luciferase Assay. […] For all procedures, cells were incubated at CO2 free condition. Steady-Glo® (Promega Corp., Madison, WI) reagent was added to culture media with shaking for 10 min. Samples (100 μL) were transferred to an opaque 96-well white plate, and luminescence was measured using a luminometer.

C4-2 cells [3] = conditions: for potentiation by BSO compared to 2-63, C4-2 cells: drug 2.5 μM, BSO pretreatment 16 h, 24 h
Description: (§4) Cell viability was then assessed using an MTT assay.
(§5) PCa cells (6×10^3 cells/well) were seeded into 96-well plates overnight and then treated with indicated compounds at indicated concentrations and time durations. The MTT (3-(4, 5-Dimethylthiazol-2-yl)-2,5-diphenyltetrazolium bromide) assay was performed according to the standard protocol. Briefly, MTT (0.5 mg/mL) was incubated with cells at 37° C. for 3 hours. Supernatant was removed, followed by the addition of dimethyl DMSO (100 μl). After incubation for 30 minutes at 37° C., absorbance was read at 570 nm on a microplate reader.

VCaP cells [4] = test: BSO pretreatment plus drug, MTT viability, VCaP cells; conditions: drug 2.5 μM, BSO pretreatment 16 h, 24 h
Description: as §4, §5

22Rv1 cells [5] = test: BSO pretreatment plus drug, MTT viability, 22Rv1 cells; conditions: drug 2.5 μM, BSO pretreatment 16 h, 24 h
Description: as §4, §5

VCaP cells [6] = test: MTT viability assay, VCaP cells; format: cell-based; conditions: 72 h, full media, MTT, read-out: IC50, viability of VCaP cells
Source text: (§1) Biological Characterization. ITC-ARi hybrid drugs effectively reduce the viability of PCa cells. By using an MTT assay, it was first examined if the newly synthesized hybrid drugs affect the viability of CRPC-relevant PCa cells. PCa VCaP cells naturally express abundant wild type FL AR as well as AR splice variants (e.g., AR-V7). These cells were, therefore, used as one of the cell culture models in this work to investigate the drug-caused viability loss and AR downregulation.

[7] = system: AR, AR-V7, c-Myc, HO-1, Hsp70; test: Western blotting under BSO combination, VCaP cells; format: cell-based
Description: (§2) It was first investigated if iron chelators or antioxidants could rescue the viability of drug combination-treated cells. […] HO-1 catalyzes the decomposition of heme into carbon monoxide, biliverdin, and Fe^2+. […] Both Fer-1 and the lipophilic antioxidant α-Toc can effectively scavenge radicals in phosphatidylcholine lipid bilayers and break the redox cycle that generates lipid hydroperoxide.
(§3) Western Blotting. […] Proteins in cell lysates (40 μg) were separated using electrophoresis on SDS-PAGE and transferred onto PVDF (polyvinylidenedifluoride) membranes. Membranes were blocked in 5% fat-free milk followed by incubation with primary antibodies overnight at 4° C., and the secondary horseradish peroxidase-conjugated anti-rabbit or anti-mouse antibodies. The blots were developed in the Enhanced Chemiluminescence mixture and detected by ImageQuant™ LAS 4000 imaging system (GE). Density of protein bonds were calculated and analyzed by using imageJ software downloaded from the National Institute of Health website.

C4-2 cells [8] = conditions: 5 μM, DHT 1 nM, charcoal stripped FBS, 6 days
Description: The medium and drug were refreshed every two days.
The anti-PCa potential of 2-63 was further characterized by assessing its inhibitory effects on DHT-stimulated C4-2 cell growth. […] C4-2 cells were cultured in charcoal-stripped, steroid-free medium and cells were stimulated with androgen.

VCaP cells [9] = test: Ferroptosis rescue/enhancement of 2-63 plus BSO, MTT, VCaP cells; format: cell-based; conditions: for rescue of 2-63 plus BSO-caused viability loss, VCaP cells: BSO 100 μM 16 h, 2-63 2.5 μM 24 h, DFO 100 μM, α-Toc 100 μM, Fer-1 0.5 μM, ZnPP 3 μM
Source text: as §2

22Rv1 cells [10] = test: Ferroptosis rescue of 2-63 plus BSO, MTT, 22Rv1 cells; format: cell-based; conditions: BSO 100 μM 16 h, 2-63 5 μM 24 h; DFO 100 μM, α-Toc 100 μM, Fer-1 0.5 μM, ZnPP 3 μM
Source text: as §2

C4-2 cells [11] = test: MTT viability assay, C4-2 cells; format: cell-based; conditions: 5 μM, 72 h
Source text: as §1

22Rv1 cells [12] = test: MTT viability assay, 22Rv1 cells; format: cell-based; conditions: 5 μM, 72 h
Source text: as §1

[13] = system: acetylation of α-tubulin and histone H3 (markers for HDAC6 and nuclear HDAC inhibition); test: Western blotting of acetylation markers in VCaP cells; format: cell-based; conditions: 16 h, 2-63 and 12b 5 and 15 μM, SAHA 1 μM; for α-tubulin acetylation: SFN 15 μM
Description: as §3

Hsp90, Hsp70, HO-1 = test: Western blotting of Hsp90, Hsp70 and HO-1 in VCaP cells; format: cell-based; conditions: 16 h, 5 and 15 μM
Description: as §3

## CN(C)C/C=C/C(=O)Nc1ccc(N2C(=S)N(c3ccc(C#N)c(C(F)(F)F)c3)C(=O)C2(C)C)cc1F [3-79, (E)-N-(4-(3-(4-cyano-3-(trifluoromethyl)phenyl)-5,5-dimethyl-4-oxo-2-thioxoimidazolidin-1-yl)-2-fluorophenyl)-4-(dimethylamino)but-2-enamide]
VCaP cells [1]; VCaP, 3-79 10 μM plus BSO 100 μM
  potency of 3-79 in viability suppression with BSO: increased under GSH deficient conditions

## CC1(C)C(=O)N(c2ccc(C#N)c(C(F)(F)F)c2)C(=S)N1c1ccc(CCCCCCO)nc1 [10b, 4-(3-(6-(6-Hydroxyhexyl)pyridin-3-yl)-4,4-dimethyl-5-oxo-2-thioxoimidazolidin-1-yl)-2-(trifluoromethyl) benzonitrile]
[2]
  suppression of DHT-stimulated luciferase activity: decreased luciferase activity in a dose-dependent manner
  AR inhibition at higher concentrations relative to comparators: Enz-comparable
  inhibition at 1 µM: 60%

## CC1(C)C(=O)N(c2ccc(C#N)c(C(F)(F)F)c2)C(=S)N1c1ccc(CCCCCCN=[N+]=[N-])nc1 [11b, 4-(3-(6-(6-Azidohexyl)pyridin-3-yl)-4,4-dimethyl-5-oxo-2-thioxoimidazolidin-1-yl)-2-(trifluoromethyl) benzonitrile]
C4-2 cells [3]
  potentiation by BSO compared to 2-63, C4-2 cells: more limited
VCaP cells [4]
  potentiation by BSO compared to 2-63, VCaP cells: more limited
[2]
  suppression of DHT-stimulated luciferase activity: decreased luciferase activity in a dose-dependent manner
  AR inhibition at higher concentrations relative to comparators: Enz-comparable
  inhibition at 1 µM: 60%
22Rv1 cells [5]
  potentiation by BSO compared to 2-63, 22Rv1 cells: more limited

## CC1(C)C(=O)N(c2ccc(C#N)c(C(F)(F)F)c2)C(=S)N1c1ccc(CCCCN=C=S)nc1 [12a, 4-(3-(6-(4-Isothiocyanatobutyl)pyridin-3-yl)-4,4-dimethyl-5-oxo-2-thioxoimidazolidin-1-yl)-2-(trifluoromethyl) benzonitrile]
VCaP cells [6]; Homo sapiens, VCaP
  IC50: 4.85 µM

## C[C@]12CCC(=O)C[C@@H]1CC[C@@H]1[C@@H]2CC[C@]2(C)[C@@H](O)CC[C@@H]12 [DHT, 5α-dihydrotestosterone, reference compound]
[2]; 24 h
  increase of luciferase activity: 8.6 fold

## CNC(=O)c1ccc(N2C(=S)N(c3ccc(C#N)c(C(F)(F)F)c3)C(=O)C2(C)C)cc1F [Enz, 4-(3-(4-cyano-3-(trifluoromethyl)phenyl)-5,5-dimethyl-4-oxo-2-thioxoimidazolidin-1-yl)-2-fluoro-N-methyl benzamide, reference compound]
[7]; VCaP, Enz 10 μM, with or without BSO 100 μM, except upregulating AR-V7
  expression of examined cellular markers (AR, c-Myc, HO-1): did not affect
C4-2 cells [8]
  viability reduction of DHT-stimulated C4-2 cells: 25%

## CCOC(=O)c1ccc(NC2CCCCC2)c(N)c1 [Fer-1, ferrostatin-1]
VCaP cells [9]
  rescue of 2-63 plus BSO-caused viability loss, VCaP cells: rescued
22Rv1 cells [10]
  rescue of 2-63 plus BSO-caused viability loss, 22Rv1 cells: rescued
[7]; DFO 100 μM, Fer-1 1 μM, BSO 100 μM, 2-63 2.5 μM, 24 h
  rescue of AR/AR-V7 under 2-63 plus BSO, VCaP cells: failed to rescue AR/AR-V7
VCaP cells [1]
  rescue of 3-79 plus BSO-induced viability loss, VCaP cells: rescued

## CC(=O)NC(CSC(=S)NCCc1ccccc1)C(=O)O (stereo not shown) [PEITC-NAC, reference compound]
C4-2 cells [3]
  potentiation by BSO compared to 2-63, C4-2 cells: more limited
VCaP cells [4]
  potentiation by BSO compared to 2-63, VCaP cells: more limited
VCaP cells [6]
  IC50: 10.1 µM
C4-2 cells [11]
  relative potency in viability reduction, C4-2 cells: 12b>2-63>PEITC-NAC
22Rv1 cells [5]
  potentiation by BSO compared to 2-63, 22Rv1 cells: more limited
22Rv1 cells [12]
  relative potency in viability reduction, 22Rv1 cells: 12b>2-63>PEITC-NAC

## O=C(CCCCCCC(=O)Nc1ccccc1)NO [SAHA, suberoylanilide hydroxamic acid, reference compound]
[13]
  histone H3 acetylation: induced notable global acetylation
  α-tubulin acetylation: induced notable global acetylation

## C[S+]([O-])CCCCN=C=S (stereo not shown) [SFN, sulforaphane, reference compound]
Hsp90, Hsp70, HO-1
  HO-1 protein level: dose-dependently upregulated
  Hsp70 protein level: significantly induced
  Hsp90 protein level: did not change
[13]
  α-tubulin acetylation: upregulated

## C=CC1=C(C)c2cc3[n-]c(cc4[n-]c(cc5nc(cc1n2)C(C)=C5C=C)c(C)c4CCC(=O)O)c(CCC(=O)O)c3C.[Zn+2] [ZnPP, Zinc(II) protoporphyrin IX]
VCaP cells [9]
  rescue of 2-63 plus BSO-caused viability loss, VCaP cells: notable cytoprotective effects
22Rv1 cells [10]
  rescue of 2-63 plus BSO-caused viability loss, 22Rv1 cells: notable cytoprotective effects

## Cc1c(C)c2c(c(C)c1O)CC[C@@](C)(CCC[C@H](C)CCC[C@H](C)CCCC(C)C)O2 [α-Toc, α-tocopherol]
VCaP cells [9]
  rescue of 2-63 plus BSO-caused viability loss, VCaP cells: rescued
22Rv1 cells [10]
  rescue of 2-63 plus BSO-caused viability loss, 22Rv1 cells: rescued
VCaP cells [1]
  rescue of 3-79 plus BSO-induced viability loss, VCaP cells: rescued

## ferric ammonium citrate
VCaP cells [9]; ferric ammonium citrate 25 μM, BSO 100 μM, 2-63 1 μM
  effect of exogenous iron on BSO plus 2-63 combination, VCaP cells: exacerbated the lethal effect
C4-2 cells [3]; ferric iron 25 μM, BSO 100 μM, 2-63 0.6-5 μM
  effect of exogenous iron on BSO plus 2-63 combination, C4-2 cells: significantly enhanced the suppressive effects
